Measured values reported in PubChem BioAssay (NCI).
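Growth conditions: 96-well plates. Treatment: test compound, 48 hours, 5 concentrations. Analysis: linear interpolation between bracketing concentrations; unreached endpoints set to highest concentration. TGI: concentration producing complete growth inhibition.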

Experiments:
Test in all cases: growth of human tumour cells (NCI), 48 h
[1] = test system: CCRF-CEM leukemia
[2] = test system: 786-0 renal
[3] = test system: SK-MEL-2 melanoma
[4] = test system: HOP-62 NSCLC
[5] = test system: UACC-257 melanoma
[6] = test system: OVCAR-3 ovarian
[7] = test system: U251 CNS
[8] = test system: EKVX NSCLC
[9] = test system: HCT-116 colon
[10] = test system: SNB-75 CNS
[11] = test system: T-47D breast
[12] = test system: MOLT-4 leukemia
[13] = test system: SW-620 colon
[14] = test system: SF-539 CNS
[15] = test system: NCI/ADR-RES ovarian
[16] = test system: NCI-H23 lung
[17] = test system: ACHN renal
[18] = test system: MDA-N
[19] = test system: OVCAR-5 ovarian
[20] = test system: SN12C renal
[21] = test system: CAKI-1 renal
[22] = test system: OVCAR-4 ovarian
[23] = test system: M14 melanoma
[24] = test system: RPMI-8226 leukemia
[25] = test system: IGROV1 ovarian
[26] = test system: PC-3 prostate
[27] = test system: DU-145 prostate
[28] = test system: OVCAR-8 ovarian
[29] = test system: A498 renal
[30] = test system: COLO 205 colon
[31] = test system: NCI-H226 lung
[32] = test system: A549 NSCLC
[33] = test system: KM12 colon
[34] = test system: MDA-MB-231 breast
[35] = test system: BT-549 breast
[36] = test system: HCT-15 colon
[37] = test system: RXF 393 renal
[38] = test system: HOP-92 NSCLC
[39] = test system: UO-31 renal
[40] = test system: K-562 leukemia
[41] = test system: SK-MEL-5 melanoma
[42] = test system: SNB-19 CNS
[43] = test system: MDA-MB-435
[44] = test system: HCC-2998 colon
[45] = test system: SR leukemia
[46] = test system: NCI-H460 lung
[47] = test system: SK-MEL-28 melanoma
[48] = test system: SF-295 CNS
[49] = test system: LOX IMVI melanoma
[50] = test system: UACC-62 melanoma
[51] = test system: MCF7 breast
[52] = test system: HS 578T breast
[53] = test system: NCI-H522 lung
[54] = test system: HL-60(TB) leukemia
[55] = test system: TK-10 renal
[56] = test system: SF-268 CNS
[57] = test system: HT29 colon
[58] = test system: MALME-3M melanoma
[59] = test system: SK-OV-3 ovarian

Measured: TGI

N[C@@H]1C[C@H](N)c2c(Cl)sc(Cl)c21
not listed: [52] | [53] | [54] | [55] | [56] | [57] | [58] | [59]
> 100 µM: all other assays above

Cc1ccc(-c2c(C#N)c(-c3ccc(N(C)C)cc3)c(C#N)c(=O)n2NS(=O)(=O)c2ccccc2)cc1
98.3 µM: [21]
36.8 µM: [41]
83.4 µM: [14]
33.2 µM: [24]
96.3 µM: [1]
68.1 µM: [37]
52.8 µM: [12]
not listed: [6] | [11] | [16] | [27] | [39] | [45]
> 100 µM: all other assays above

CN(C)c1ccc(C2CC(=O)CC(c3ccc(N(C)C)cc3)C23C(=O)NC(=O)NC3=O)cc1 (stereo unspecified)
19 µM: [38]
not listed: [29] | [32] | [52] | [59]
> 25 µM: all other assays above

CCCOC(=O)c1cc(C(=CCC[C@H]2CC[C@@]3(C)[C@@H](CC[C@@H]4[C@@H]3CC[C@]3(C)[C@@H](C(C)CCCC(C)C)CC[C@@H]43)C2)c2cc(Cl)c(O)c(C(=O)OCCC)c2)cc(Cl)c1O (stereo partly specified)
> 5 µM: [40]
not listed: [5] | [14] | [17] | [19] | [23] | [32] | [37] | [38] | [39] | [45] | [47] | [48] | [51] | [53] | [55] | [58] | [59]
> 50 µM: all other assays above
